The subject of this assay is rat tail artery helical strip. The following applies: strips contracted with arginine vasopressin, dose of 100 mg/ml.

Description: Male and female Sprague-Dawley rats were anesthetized with pentobarbital (50 mg/kg) before removal of the tail artery. Upon isolation the artery was placed in ice cold Krebs-Hensleit solution (KHS) which was oxygenated with 95% O2, 5% CO2. The vessels were cut helically and strips of approximately 1.5 cm were secured in a Sawyer-Bartleston chamber containing KHS. The development of force of the helical strips was measured with a Grass FT.03 force displacement transducer and recorded on a Grass Model 79D polygraph. Isolated tail artery helical strips were equilibrated for one hour prior to addition of any peptide. In all cases, the strips were first contracted by adding arginine vasopressin (AVP), to the bath. The peptide being studied was then added to the bath and the degree of relaxation was determined.

For the compound `N=C(N)NCCC[C@@H](N)C(=O)O` [D Arg, D-arginine], the Tension change is 0 gm.

These data come from US4687840A, “Hypotensive active peptides” (Texas Tech University Health Sciences Center, priority 1986, dated 1987).
